Consider 55 compounds from PubChem BioAssay AID1159565 (GlaxoSmithKline (GSK), 2015).

Calls of active or inactive are those of the source. The rule behind the calls is not given here. Where only a bound is given, the exact number is not on record here.

The subject of the test is T. cruzi-infected H9C2 cardiomyocytes, high-content imaging. Briefly: anti-T. cruzi activity in infected cardiomyocytes – imaging, H9C2 host cardiomyocytes, host toxicity (AID 1159565).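 Note: infected cells incubated 72 h after plating.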
Where [1] appears, read: measured here: H9C2 host cell toxicity.
The mark [2] stands for this setting: measured here: amastigotes per cell.

Turning to `O=C(Nc1ncc([N+](=O)[O-])s1)C1CC1`, the IC50 (as a rule, the midpoint of a concentration-inhibition curve) was 1 µM. Moreover, the IC50 under setting [1] was greater than 50 µM. The compound also had an IC50 under setting [2] of 0.4 µM.
With `CC(=O)Nc1ccc(Nc2nccc(-c3cnn4ncccc34)n2)cc1C(F)(F)F`, the IC50 was 0.5 µM. The IC50 under setting [1] was 0.063 µM. Besides, under setting [2], the IC50 was 0.2 µM.
On the same counts, the results for `COc1ccc(OC)c(NC(=O)c2ccc([N+](=O)[O-])o2)c1` are 13 µM, 4 µM and 7.9 µM.
On the same counts, the results for `COc1cccc(S(=O)(=O)Nc2ccc3c(c2)CC(N2CCC(NC(=O)C4CC4)CC2)C3)c1` (stereo not given) are > 50 µM (inactive), greater than 50 µM and 32 µM.
On to `O=C(NC1CCN(C2Cc3ccc(NS(=O)(=O)c4cc(F)cc(F)c4)cc3C2)CC1)C1CC1` (stereo not given), for which the IC50 is > 50 µM (inactive). For the same compound, the IC50 under setting [1] was greater than 50 µM. Besides, under setting [2], the IC50 was greater than 50 µM.
In the case of `CCN(C)Cc1ccc(N2CCC(NS(=O)(=O)c3ccc4c(c3)CCO4)CC2)nc1`, the IC50 was 1.3 µM. This compound also returned an IC50 under setting [1] greater than 50 µM. Also, the IC50 under setting [2] was determined as 1 µM.
On the same counts, the results for `O=c1cc(NCCCNCc2cc(C(F)(F)F)cs2)[nH]c2ccccc12` are > 50 µM (inactive), 32 µM and 5 µM.
On to `Fc1ccc(OC2CC(NCc3cccc4cn[nH]c34)C2)cc1C(F)(F)F` (stereo not given), for which the IC50 was 0.2 µM. In addition, the 50% inhibitory concentration (IC50) under setting [1] stood at 7.9 µM. Under setting [2], this compound returned an IC50 of 0.16 µM.
For `CC(=O)Nc1ccc(-c2noc(CC3CCCN(Cc4cccc(F)c4C)C3)n2)cc1` (stereo not given), the IC50 is 2 µM. The IC50 under setting [1] was 32 µM. Besides, the IC50 under setting [2] is 1.3 µM.
Turning to `c1ccc2[nH]c(-c3ccc(N4CCCC4)nc3)nc2c1`, the IC50 was 1.6 µM. Besides, the IC50 under setting [1] was greater than 50 µM. This compound also showed an IC50 under setting [2] of 1 µM.
On the same counts, the results for `O=C(NCC1CCCCC1)c1cc(=O)c2ccccc2o1` are 0.63 µM, 32 µM and 0.5 µM.
On to `COc1cnc2ccc(=O)n(CCN3CCC(NC(=O)c4ccc(Cl)cc4)CC3)c2c1`, for which the IC50 was 0.25 µM. In addition, the IC50 under setting [1] is 0.63 µM. The compound also registered an IC50 under setting [2] of 0.079 µM.
`O=C(CN1CCC2(O)CCCCC2C1c1ccc2c(c1)OCO2)Nc1ccc(Cl)cc1Cl` (stereo not given): the IC50 is 5 µM. The compound further gave an IC50 under setting [1] greater than 50 µM. Moreover, the IC50 under setting [2] was 3.2 µM.
On the same counts, the results for `Cc1[nH]n2c(=O)c3c(nc2c1-c1ccc(Br)cc1)CCCC3` are 1.6 µM, greater than 50 µM and 0.79 µM.
As to `Nc1nccc(-c2csc(Nc3ccc(Cl)cc3)n2)n1`, the IC50 was > 50 µM (inactive). The compound further displayed an IC50 under setting [1] of 2 µM. The IC50 under setting [2] is greater than 50 µM.
On the same counts, the results for `O=C(NCCc1ccn(-c2ccccc2)n1)C1CCCCC1` are 1 µM, greater than 50 µM and 1 µM.
As for `CN(C)c1ccc(N)cc1CN(CC1CCCO1)S(C)(=O)=O` (stereo not given), the IC50 was > 50 µM (inactive). In addition, the IC50 under setting [1] is greater than 50 µM. The IC50 under setting [2] was greater than 50 µM.
With `CC(C)(C)Nc1nc(Nc2ccc3c(c2)CS(=O)(=O)C3)nc2[nH]ccc12`, the IC50 is 32 µM. For the same compound, the IC50 under setting [1] came to 1 µM. The same compound showed an IC50 under setting [2] of 20 µM.
For the compound `CNC(=O)C1Cc2ccccc2N1C(=O)Cc1ccccc1` (stereo not given), the IC50 is > 50 µM (inactive). Besides, the IC50 under setting [1] was greater than 50 µM. The compound further registered an IC50 under setting [2] greater than 50 µM.
For the compound `COc1ccc2ncc(Cl)c(CCN3CC[C@H](NCc4cc5c(cn4)OCS5)[C@@H](O)C3)c2n1`, the IC50 is 0.16 µM. The compound also gave an IC50 under setting [1] of 10 µM. In addition, under setting [2], the IC50 worked out at 0.1 µM.
For `O=C(Nc1ccc(-c2nc3ccccc3c(=O)[nH]2)cc1)c1cccs1`, the IC50 is > 50 µM (inactive). Moreover, the IC50 under setting [1] is greater than 50 µM. For the same compound, the IC50 under setting [2] is greater than 50 µM.
`Cc1nc(-c2ccncc2)ncc1C(C)NC(=O)c1ccc(Cl)s1` (stereo not given): the IC50 was 32 µM. This compound showed an IC50 under setting [1] greater than 50 µM. Further, under setting [2], the IC50 stood at 20 µM.
As to `O=S(=O)(NCC(c1cccnc1)N1CCN(c2ccccc2F)CC1)c1ccc(F)cc1` (stereo not given), the 50% inhibitory concentration (IC50) is 0.2 µM. The compound further showed an IC50 under setting [1] greater than 50 µM. Moreover, under setting [2], the IC50 came to 0.2 µM.
Take `O=C(NCc1nnc2n1CCCCC2)c1ccc(-c2ccc(F)cc2)o1`: the IC50 is 1.6 µM. Under setting [1], this compound gave an IC50 greater than 50 µM. The IC50 under setting [2] was determined as 1 µM.
Consider `CC(Cn1ccnc1)NC(=O)COc1ccc(Cl)c(Cl)c1` (stereo not given), for which the IC50 is 0.5 µM. Under setting [1], the IC50 was greater than 50 µM. Further, the IC50 under setting [2] came to 0.4 µM.
Regarding `COc1cc(OC)cc(C(=O)N[C@@H](CC(C)C)C(=O)NC2(C#N)CC2)c1`, the IC50 was > 50 µM (inactive). Besides, the IC50 under setting [1] is greater than 50 µM. This compound displayed an IC50 under setting [2] greater than 50 µM.
Regarding `CCc1nn(-c2ncc(F)c(NC(C)C)n2)c(N)c1C1CCCCC1`, the IC50 was 3.2 µM. The compound further displayed an IC50 under setting [1] of 1 µM. Further, the IC50 under setting [2] turned out to be 1.6 µM.
On the same counts, the results for `Cc1cc(C#N)c([N+](=O)[O-])cc1Br` are 0.32 µM, 50 µM and 0.05 µM.
`Cc1cc(C)c(C#N)c(SCC(=O)c2ccc3c(c2)OCO3)n1`: the IC50 is 0.79 µM. The IC50 under setting [1] was greater than 50 µM. For the same compound, under setting [2], the IC50 was 0.4 µM.
Take `CCCN1CCN(Cc2ccc(S(=O)(=O)Nc3cccc(C)c3)cc2)CC1`: the IC50 is 0.79 µM. This compound gave an IC50 under setting [1] greater than 50 µM. Under setting [2], the IC50 turned out to be 0.63 µM.
As for `COc1ccc2ncc(F)c(CCN3CC[C@@H](NC(=O)c4cc5c(s4)CCC5)[C@@H](O)C3)c2n1`, the IC50 was 0.13 µM. For the same compound, the IC50 under setting [1] is 0.13 µM. The IC50 under setting [2] was found to be 0.05 µM.
In the case of `COc1cccc(CCNC(=O)C(c2cn[nH]c2)N2CCN(c3ccc(Cl)cc3)CC2)c1` (stereo not given), the half-inhibitory concentration (IC50) was 0.02 µM. The same compound displayed an IC50 under setting [1] of 40 µM. Under setting [2], this compound had an IC50 of 0.016 µM.
Take `COc1cc(-c2noc(CC#N)n2)ccc1OC(F)F`: the IC50 was 40 µM. The IC50 under setting [1] worked out at 32 µM. The compound further displayed an IC50 under setting [2] of 25 µM.
On the same counts, the results for `CC(C)(C)C(O)(CCc1ccc(Cl)cc1)Cn1cncn1` (stereo not given) are 0.25 µM, greater than 50 µM and 0.2 µM.
Consider `Clc1ccc(C(CC2CCCCO2)Cn2cncn2)c(Cl)c1` (stereo not given), for which the IC50 was 1.3 µM. The compound further had an IC50 under setting [1] greater than 50 µM. The IC50 under setting [2] stood at 1 µM.
With `CN1C(=O)c2ccccc2Sc2ccc(NC(=O)NCc3ccco3)cc21`, the concentration for half-maximal inhibition (IC50) was 13 µM. Also, the IC50 under setting [1] came out at 25 µM. In addition, the IC50 under setting [2] came out at 6.3 µM.
Turning to `CC(C)Nc1nc(Cl)nc2ccccc12`, the IC50 is 10 µM. In addition, the IC50 under setting [1] turned out to be 7.9 µM. The IC50 under setting [2] is 4 µM.
Consider `O=C(NCCNc1noc(-c2ccc([N+](=O)[O-])cc2)n1)c1ccc(Cl)cc1`, for which the IC50 is > 50 µM (inactive). The same compound showed an IC50 under setting [1] greater than 50 µM. Under setting [2], this compound yielded an IC50 of 1.3 µM.
On the same counts, the results for `COc1cccc(NS(=O)(=O)c2ccc3[nH]cc(C(=O)NCCC(C)C)c(=O)c3c2)c1` are 32 µM, 13 µM and 16 µM.
On to `COc1ccccc1-c1c(C)[nH]c2nc(N)nc(C)c12`, for which the IC50 is 0.25 µM. The IC50 under setting [1] was greater than 50 µM. This compound showed an IC50 under setting [2] of 0.13 µM.
On the same counts, the results for `Cc1ccnc(NS(=O)(=O)c2ccc(NC(=O)c3ccc([N+](=O)[O-])s3)cc2)n1` are 10 µM, 5 µM and 6.3 µM.
For the compound `CC(C)COC(=O)Nc1ccc(N2CCC(CNS(=O)(=O)c3ccccc3)CC2)c(F)c1`, the IC50 was 7.9 µM. This compound also displayed an IC50 under setting [1] greater than 79 µM. For the same compound, under setting [2], the IC50 was found to be 7.9 µM.
Regarding `COc1ccc(C2CC(c3ccc(NS(C)(=O)=O)cc3)=NN2C(=O)c2cccs2)cc1OC` (stereo not given), the IC50 is 32 µM. The IC50 under setting [1] was greater than 50 µM. Also, the IC50 under setting [2] was 16 µM.
On the same counts, the results for `CCCn1c(NC(=O)CCn2cc(Br)cn2)nc2ccccc21` are 6.3 µM, 25 µM and 2.5 µM.
For `CNC(=O)C1Cc2ccccc2N1C(=O)Cc1ccc(OC)cc1` (stereo not given), the IC50 is > 50 µM (inactive). This compound also yielded an IC50 under setting [1] greater than 50 µM. The compound also came in with an IC50 under setting [2] greater than 50 µM.
For `O=C(CCCn1cnc([N+](=O)[O-])n1)Nc1cccc(Cl)c1`, the IC50 was 0.5 µM. Also, the IC50 under setting [1] is greater than 50 µM. In addition, the IC50 under setting [2] came out at 0.16 µM.
For `Cc1nc2c(-c3cccs3)c(C)nn2c(NCCO)c1C`, the IC50 was 32 µM. Moreover, the IC50 under setting [1] is greater than 50 µM. The compound also registered an IC50 under setting [2] of 16 µM.
As to `CC(c1cc(Cl)cc(Cl)c1)N(C)c1ncc2c(N)nc(N)nc2n1` (stereo not given), the IC50 is 0.002 µM. The IC50 under setting [1] is 7.9 µM. Under setting [2], this compound displayed an IC50 of 0.001 µM.
As for `O=c1[nH]ccc2ccc(-c3ccncc3)cc12`, the IC50 was 0.25 µM. The same compound returned an IC50 under setting [1] greater than 50 µM. The half-inhibitory concentration (IC50) under setting [2] amounted to 0.25 µM.
As to `O=C1NCc2cccc(Nc3nc(NC4CCC(O)CC4)ncc3Br)c21` (stereo not given), the IC50 was 1 µM. This compound yielded an IC50 under setting [1] of 0.1 µM. For the same compound, under setting [2], the IC50 was 0.4 µM.
For `CCS(=O)(=O)Nc1ccc(C2=NN(C(=O)c3cccs3)C(c3ccccc3OC)C2)cc1` (stereo not given), the IC50 is > 50 µM (inactive). The same compound returned an IC50 under setting [1] greater than 50 µM. Under setting [2], this compound returned an IC50 greater than 50 µM.
Take `O=C(NCCc1cccnc1)c1csc(-c2ccccc2)n1`: the IC50 is 0.5 µM. This compound also yielded an IC50 under setting [1] greater than 50 µM. Under setting [2], this compound showed an IC50 of 0.4 µM.
Regarding `O=C(NCCc1ccccn1)C(c1cn[nH]c1)N1CCN(c2ccc(Cl)c(Cl)c2)CC1` (stereo not given), the IC50 is 0.16 µM. The IC50 under setting [1] was greater than 50 µM. For the same compound, under setting [2], the IC50 was 0.13 µM.
In the case of `N#Cc1cccc(CN2CCC(N(Cc3cccnc3)C(=O)c3cc(F)c(F)cc3F)CC2)c1`, the IC50 is 0.4 µM. This compound had an IC50 under setting [1] greater than 50 µM. Also, the half-inhibitory concentration (IC50) under setting [2] stood at 0.32 µM.
Turning to `N#CN1CC[C@@H](NC(=O)Nc2ccccc2Oc2ccccc2)C1`, the half-inhibitory concentration (IC50) is 4 µM. Also, the IC50 under setting [1] came to 20 µM. Moreover, the 50% inhibitory concentration (IC50) under setting [2] was 5 µM.
